Reference: patent publication US20210292710A1, “METHOD FOR ENHANCING IMMUNE FUNCTION OF IMMUNE CELL AND IMMUNE CELL LINE PRODUCED USING THE SAME” (INDUSTRY-ACADEMIC COOPERATION FOUNDATION, YONSEI UNIVERSITY, priority 2020, published 2021)

Legend:
GLUT1 [1] = assay: GLUT1 expression in T cells due to PI3K inhibitor and mTORC1 inhibitor treatment; type: cell-based; details: RAD001 as mTORC1 inhibitor, p<0.05
Description: Furthermore, referring to FIG. 8, AKT and GLUT1 expression levels in T cells due to PI3K inhibitor and mTORC1 inhibitor treatment are shown. In this connection, RAD001 is used as a mTORC1 inhibitor. Furthermore, referring to (b) of FIG. 8, the GLUT1 expression level in T cells due to PI3K inhibitor and mTORC1 inhibitor treatment is shown.

[2] = system: enzymes involved in glycolysis of T cells; assay: mRNA expression of enzymes involved in T cell glycolysis; type: cell-based, mouse; details: CD3+ T cells activated 72 hours with anti-CD3 and anti-CD28 beads
Procedure: Thus, referring to FIG. 4B, the results of mRNA expression of enzymes involved in glycolysis of T cells due to PI3K inhibitor treatment are shown. In this connection, in order to identify enzymes involved in glycolysis of T cells due to PI3K inhibitor treatment, the CD3+ T cells obtained in FIG. 2 are used. Furthermore, the obtained CD3+ T cell is activated for 72 hours using anti-CD3 and anti-CD28 beads to identify mRNA expression of enzymes involved in glycolysis. In this connection, CD3 secretes cytokine as a protein immunomodulator, and CD28 inhibits apoptosis. Only CD3-activated T cells may lead to apoptosis. Therefore, both CD3 and CD28 signals are used to increase T cell function and survival.

[3] = system: lung-cancer cell line KLN205; assay: Anti-cancer effect (tumor size) in lung-cancer cell line KLN205; type: in vivo
Procedure: Referring to FIG. 10A, the results of the anti-cancer effect against the lung-cancer cell line KLN205 due to the PI3K inhibitor treatment are shown. When the cell is treated with the vehicle as a control, the tumor size rapidly increases as the treatment days increase, and then the tumor size on the 15th day is 400 to 500 mm^3. However, when the cell is treated with the PI3K inhibitor, the tumor size is reduced compared to the control. More specifically, when the cell is treated with the PI3K inhibitor BKM 120 at 35 mpk, the tumor size on the 15th day is 200 to 250 mm^3. When the cell is treated with BKM 120 at 50 mpk, the tumor size on day 15 is found to be 90 to 100 mm^3.

T cells = assay: Extracellular acidification rate (ECAR) of T cells; type: cell-based, mouse
Procedure: Further, referring to FIG. 5B, the extracellular acidification rate (ECAR) of T cells due to PI3K inhibitor treatment is shown. In this connection, to measure the extracellular acidification rate, the T cell used in FIG. 5A is used, and 1×10^5 T cells are used. Furthermore, the extracellular acidification rate refers to a measurement of glucose degradation via a change in pH resulting from lactate secretion in the medium. In this connection, as the oligomycin is injected to inhibit mitochondrial metabolism, T cells must produce ATP using only glycolysis. Thus, the extracellular acidification rate in phase 3 may mean pure glycolysis capacity. In this connection, 2DG is a molecule in which the 2-hydroxyl group of glucose is replaced with hydrogen and thus glucose may not be degraded. Furthermore, when the T cell is treated with 2DG, the extracellular acdification rate may be controlled in an upstream phase of glucose metabolism. Thus, the extracellular acidification rate in phase 4 may refer to the glucose reserve in the cell.

GLUT1 [4] = assay: GLUT1 expression in T cells due to PI3K inhibitor and AKT inhibitor treatment; type: cell-based; details: both helper and cytotoxic T cells; p<0.05
Description: Furthermore, referring to FIG. 7, the GLUT1 expression level in the T cells due to PI3K inhibitor and AKT inhibitor treatment is shown.

[5] = system: lung-cancer cell line LLC2; assay: Cancer cell killing ability of CD3+ T cells from PI3K inhibitor-treated mice, co-culture with lung-cancer cell line, annexin V/PI flow cytometry; type: cell-based, mouse
Procedure: First, 3 μg of a neoplasm lysate obtained from lung-cancer cell line LLC2 and 1 μg of an adjuvant LPS (lipopolysaccharide) are injected into 6 to 8 weeks old BALBc mice as an allogeneic model once a week in an intramuscular injection manner. At the same time, 50 mpk (mg/kg) of BKM-120 as a PI3K inhibitor (iPI3K) is orally administered to the mice belonging to the PI3K inhibitor-treated experimental group once a day.
Then, lymphocytes are separated from the splenocyte of the mouse subjected to the PI3K inhibitor for a total of 3 weeks. Only CD3+ T cells are obtained using a magnetic-activated cell sorter (MACS).
Then, the obtained CD3+ T cells are co-cultured for 24 hours together with the lung-cancer cell line from which the lysate is obtained. In this connection, a ratio between the numbers of the T cell and the lung-cancer cell line may be defined as 10 T cells: 1 lung-cancer cell line. Furthermore, the T cells and lung-cancer cell line are cultured under a normal condition, a hypoxic condition, and a low glucose condition, respectively, to identify cancer cell killing ability in poor tumor microenvironment.
Then, the co-cultured T cells and lung-cancer cell line are subjected to flow cytometry analysis using an apoptosis kit and CD3+ antibodies.
First, referring to (a) of FIG. 3A, the result of the cancer cell killing ability of the T cell under the normal condition due to the treatment of the PI3K inhibitor is shown. In this connection, the x-axis and y-axis indicate apoptosis using annexin V and PI (propidium iodine) as staining reagent, respectively.

pAKT (phosphoAKT) = assay: pAKT expression in CD4 and CD8 T cells by flow cytometry (MFI); type: cell-based, mouse; details: for AKT expression relative to control: after 48 hours
Procedure: First, referring to FIG. 6, an expression level of pAKT (phosphoAKT) in an active state in the T cell due to PI3K inhibitor treatment is shown. In this connection, in order to identify AKT activation of T cells due to PI3K inhibitor treatment, the CD3+ T cells obtained in FIG. 2 are used. Furthermore, the obtained CD3+ T cells are co-cultured for 48 hours together with CD11c positive dendritic cells, anti-CD3 and anti-CD28. The pAKT expression is measured via flow cytometry in 6 and 48 hours after the co-culture has started. Furthermore, expression of pAKT is indicated as mean fluorescence intensity (MFI). Furthermore, CD4 and CD8 positive cells are used as T cells to measure expression of pAKT. In this connection, CD4 and CD8 are present in the cell membrane of the T cell and are cell-binding proteins that bind to non-polymorphic regions of class II MHC and class I MHC, respectively. CD4 may be a helper T cell as a T cell lineage marker. CD8 may refer to a cytotoxic T cell.

[6] = hypoxic condition, 50 mpk BKM-120, 3 weeks, 24 hours co-culture
[7] = low glucose condition, 50 mpk BKM-120, 3 weeks, 24 hours co-culture
[8] = normal condition, 50 mpk BKM-120, 3 weeks, 24 hours co-culture

What does the source list for `Nc1cc(C(F)(F)F)c(-c2cc(N3CCOCC3)nc(N3CCOCC3)n2)cn1` [BKM 120, buparlisib]?
GLUT1 expression in iPI3K+/imTOR− group relative to iPI3K−/imTOR−, iPI3K−/imTOR+ and iPI3K+/imTOR+ groups (GLUT1 [1]): 6 to 7 times; mRNA expression of each glycolysis enzyme versus spleen T cells and CD3+CD28-stimulated T cells [2]: higher; tumor size ([3]; 35 mpk, 15th day): 200 to 250 mm^3; tumor size ([3]; 50 mpk, day 15): 90 to 100 mm^3; extracellular acidification rate versus control (T cells; phase 1, 1×10^5 T cells): higher; extracellular acidification rate versus control (T cells; phase 2, glucose injected): the difference between the extracellular acidification rates of the T cell group treated with PI3K inhibitor and the control increases; extracellular acidification rate versus control (T cells; phase 3, oligomycin injected (glycolysis capacity)): higher extracellular acidification rate than that of the control; extracellular acidification rate versus control (T cells; phase 4, 2-deoxy-D-glucose (2DG) injected (glucose reserve)): higher extracellular acidification rate than that in the control; GLUT1 expression in iPI3K+/iAKT− group relative to iPI3K−/iAKT−, iPI3K−/iAKT+ and iPI3K+/iAKT+ groups (GLUT1 [4]): 2 to 3 times; first quadrant (stained by both annexin V and PI, complete death of the cancer cell) [5, 6]: 47.4%; fourth quadrant (annexin V / PI) [5, 6]: 7.36%; second quadrant (annexin V / PI) [5, 6]: 26.7%; third quadrant (annexin V / PI) [5, 6]: 18.5%; first quadrant (stained by both annexin V and PI, complete death of the cancer cell) [5, 7]: 36.1%; fourth quadrant (annexin V / PI) [5, 7]: 3.71%; second quadrant (annexin V / PI) [5, 7]: 47.2%; third quadrant (annexin V / PI) [5, 7]: 13.1%; fourth quadrant (annexin V / PI) [5, 8]: 11.5%; second quadrant (annexin V / PI) [5, 8]: 15.5%; third quadrant (annexin V / PI) [5, 8]: 10.2%; first quadrant (stained by both annexin V and PI, complete death of the cancer cell) ([5]; normal condition, T cells from mice given 50 mpk BKM-120 orally once a day for 3 weeks, 10 T cells:1 LLC2, 24 hours): 62.8%; AKT expression level relative to the AKT expression level at the start of culture (pAKT (phosphoAKT); 48 hours after the start of culture): ≥ 3 times; AKT expression versus control (pAKT (phosphoAKT); cytotoxic T cells (CD8), 0 to 25 hours): lower AKT expression than that of the control; AKT expression versus control (pAKT (phosphoAKT); cytotoxic T cells (CD8), after 25 hours): higher AKT expression than that of the control; AKT expression relative to control (pAKT (phosphoAKT); cytotoxic T cells (CD8)): 1.3 to 1.7 times; AKT expression versus control (pAKT (phosphoAKT); helper T cell (CD4), 0 to 20 hours): lower AKT expression than that of the control; AKT expression versus control (pAKT (phosphoAKT); helper T cell (CD4), after 20 hours): higher AKT expression than that of the control; AKT expression relative to control (pAKT (phosphoAKT); helper T cell (CD4)): 1.5 to 2 times; time after the start of the culture at which the AKT level is increased again to the level before the PI3K treatment (pAKT (phosphoAKT); immune cells cultured after PI3K inhibitor treatment): 20 h
